Reference: doi:10.1101/692707v2 (biorxiv, 2020)

What was measured:
Format in all cases: binding
YdiU^475 [1] = biological target: T1, YdiU^475 (Escherichia coli, UniProt P77649); test: SPR
T1 sequence (P77649 1-475): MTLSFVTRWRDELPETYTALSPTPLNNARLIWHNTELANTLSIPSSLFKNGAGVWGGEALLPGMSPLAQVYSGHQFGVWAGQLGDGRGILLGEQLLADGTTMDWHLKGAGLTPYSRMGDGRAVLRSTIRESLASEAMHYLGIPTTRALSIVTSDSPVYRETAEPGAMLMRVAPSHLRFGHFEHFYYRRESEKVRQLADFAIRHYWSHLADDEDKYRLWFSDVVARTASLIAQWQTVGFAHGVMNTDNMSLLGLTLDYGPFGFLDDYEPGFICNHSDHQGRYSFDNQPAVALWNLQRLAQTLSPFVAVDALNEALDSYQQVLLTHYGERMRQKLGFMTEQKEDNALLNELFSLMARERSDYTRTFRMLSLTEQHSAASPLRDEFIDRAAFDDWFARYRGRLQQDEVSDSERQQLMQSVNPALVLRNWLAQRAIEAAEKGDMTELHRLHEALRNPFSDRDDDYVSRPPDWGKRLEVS

YdiU^475 [2] = biological target: T1, YdiU^475; test: X-ray crystal structure; settings: Mg2+, active site
YdiU^475 [3] = biological target: T1, YdiU^475; test: DSF on Uncle platform; settings: 2 mM Mn2+, Tm of complex, not a shift, apo 38.3 °C (with 5 mM EDTA)

`Nc1ncnc2c1ncn2[C@@H]1O[C@H](COP(=O)(O)OP(=O)(O)NP(=O)(O)O)[C@@H](O)[C@H]1O` [AMPNPP] showed a Kd (YdiU^475 [1]) of ~18 µM.
For `Nc1ncnc2c1ncn2[C@@H]1O[C@H](COP(=O)(O)O)[C@@H](O)[C@H]1O` [AMP], the X-ray crystal structure (YdiU^475 [2]; together with imidodiphosphate) was 6III (YdiU-AMP-imidodiphosphonic acid).
In the case of `Nc1ncnc2c1ncn2[C@@H]1O[C@H](COP(=O)(O)OP(=O)(O)OP(=O)(O)O)[C@@H](O)[C@H]1O` [ATP], the Tm1 (YdiU^475 [3]; 1 mM ATP) is reported as 50.3 °C.
`O=c1ccn([C@@H]2O[C@H](COP(=O)(O)NP(=O)(O)OP(=O)(O)O)[C@@H](O)[C@H]2O)c(=O)[nH]1` [UMPNPP] gave a Kd (YdiU^475 [1]) of ~0.14 µM.
`O=c1ccn([C@@H]2O[C@H](COP(=O)(O)OP(=O)(O)OP(=O)(O)O)[C@@H](O)[C@H]2O)c(=O)[nH]1` [UTP] showed a Tm1 (YdiU^475 [3]; 1 mM UTP) of 40.6 °C.
`O=P(O)(O)NP(=O)(O)O` [imidodiphosphonic acid] was tested, and the X-ray crystal structure (YdiU^475 [2]; together with AMP) was 6III (YdiU-AMP-imidodiphosphonic acid).
